Experimental data as given in patent publication US10047105B2, “Gyrase inhibitors” (Merck Sharp & Dohme Corp., priority 2009, dated 2018).
Converted amounts (≈) assume the structure as drawn.

Legend:
S. aureus ATCC 13709 = assay: MIC, antibacterial potency, S. aureus; assay type: cell-based
S. pneumoniae ATCC 51916 = assay: MIC, S. pneumoniae; assay type: cell-based
[1] = S. pneumoniae (Spn52), in µg/mL

Compound	MIC, SA (S. aureus ATCC 13709; S. aureus (SA), in µg/mL)	MIC Spn52 (S. pneumoniae ATCC 51916; [1])	MIC, SA (S. aureus ATCC 13709; S. aureus)	MIC Spn52 (S. pneumoniae ATCC 51916; S. pneumoniae)
CCc1[nH]c2nc(Sc3ccc4nccnc4c3)nc(N3CCC4(CCNCC4)C3)c2c1Cl [700,901]	8	4	–	–
CCc1[nH]c2nc(Sc3cnc4nccnc4c3)nc(N3CCC(c4cccnc4)C3)c2c1Cl (stereo not drawn) [700,851]	<=0.5	4	–	–
CCc1[nH]c2nc(Sc3cnc4nccnc4c3)nc(N3CC(NC(=O)c4csc(N)n4)C3)c2c1Cl [700,453]	–	–	≤ 0.5 µg/mL	≤ 0.5 µg/mL
CCc1[nH]c2nc(Sc3cccnc3)nc(NCCCn3ccnc3)c2c1Cl.O=C(O)C(F)(F)F [700,274]	–	–	4 µg/mL	16 µg/mL
CCc1[nH]c2nc(Sc3cnc4nccnc4c3)nc(N3CC(NC(=O)c4cnc[nH]4)C3)c2c1Cl [700,449]	–	–	1 µg/mL (≈ 1.97 µM)	1 µg/mL (≈ 1.97 µM)
CCOc1nc(Nc2ccc3nccnc3c2)nc2[nH]c(CC)c(Br)c12.O=C(O)C(F)(F)F [700,443]	–	–	> 64 µg/mL	> 64 µg/mL
CCOC(=O)Cc1nc(N)c2ncc(Sc3nc(N4CC(O)C4)c4c(Cl)c(CC)[nH]c4n3)cc2n1.O=C(O)C(F)(F)F.O=C(O)C(F)(F)F [700,473]	–	–	32 µg/mL	64 µg/mL
CCc1[nH]c2nc(Sc3cnc4ccoc4c3)nc(N3CCC(N)C3)c2c1Cl.O=C(O)C(F)(F)F (stereo not drawn) [700,676]	–	–	4 µg/mL	8 µg/mL
CCc1[nH]c2nc(Sc3cnc4nccnc4c3)nc(N3CCN(CCO)CC3)c2c1Cl.O=C(O)C(F)(F)F [700,445]	–	–	16 µg/mL	16 µg/mL
CCc1[nH]c2nc(Sc3cnc4cccnc4c3)nc(N3CC4C(C3)C4(CN)NCc3ccccc3)c2c1Cl (stereo not drawn) [700,887]	8	4	–	–
CCc1[nH]c2nc(Sc3ccc(C#N)nc3)nc(N3CC[C@@H](N)C3)c2c1Cl [700,818]	2	8	–	–
CCc1[nH]c2nc(Sc3ccc4nnc(C(=O)NCCN5CCCC5)nc4c3)nc(N3CC[C@@H](N)C3)c2c1Cl [700,844]	64	32	–	–
CCc1[nH]c2nc(Sc3cnc4c(N)nc(CN5CCC(N)CC5)nc4c3)nc(N3CC[C@@H](N)C3)c2c1Cl [700,827]	4	32	–	–
CCc1[nH]c2nc(Sc3cnc4c(N)nc(N)nc4c3)nc(OCCn3ccnc3)c2c1Cl.O=C(O)C(F)(F)F.O=C(O)C(F)(F)F [700,493]	–	–	> 64 µg/mL	> 64 µg/mL
CCc1[nH]c2nc(Sc3cnc4nccnc4c3)nc(N3CC(N4CCCCC4)C3)c2c1Cl.O=C(O)C(F)(F)F.O=C(O)C(F)(F)F [700,605]	–	–	4 µg/mL	8 µg/mL
CCc1[nH]c2nc(Sc3cnc4nccnc4c3)nc(N3CC(N(C)C)C3)c2c1Cl.O=C(O)C(F)(F)F.O=C(O)C(F)(F)F [700,603]	–	–	4 µg/mL	8 µg/mL
CCc1[nH]c2nc(Sc3cnc4nccnc4c3)nc(N3CCC(CN4CCCC4=O)CC3)c2c1Cl [700,815]	2	2	–	–
CCOc1nc(Oc2ccc3c(N)nc(C)nc3c2)nc2[nH]c(CC)c(Cl)c12.O=C(O)C(F)(F)F [700,664]	–	–	2 µg/mL	4 µg/mL
CCc1[nH]c2nc(Sc3ccc4ccc(C(=O)O)nc4c3)nc(N3CC(CNC(=O)C4CC4)C3)c2c1Cl [700,804]	4	16	–	–
CCc1[nH]c2nc(Sc3ccc4ccc(C(=O)O)nc4c3)nc(N3CC(CNC(=O)c4cn(C)nc4C(F)(F)F)C3)c2c1Cl [700,805]	<=0.5	2	–	–
CCc1[nH]c2nc(Sc3cnc4nccnc4c3)nc(N3CCC[C@H]3COC)c2c1Cl [700,688]	–	–	≤ 0.5 µg/mL	≤ 0.5 µg/mL

Compound	MIC, SA (S. aureus ATCC 13709; S. aureus (SA), in µg/mL)	MIC Spn52 (S. pneumoniae ATCC 51916; [1])	MIC, SA (S. aureus ATCC 13709; S. aureus)	MIC Spn52 (S. pneumoniae ATCC 51916; S. pneumoniae)
CCc1[nH]c2nc(Sc3cnc4nccnc4c3)nc(N3CC(N4CCN(C(=O)OC(C)(C)C)CC4)C3)c2c1Cl.O=C(O)C(F)(F)F.O=C(O)C(F)(F)F [700,671]	–	–	8 µg/mL	32 µg/mL
CCc1[nH]c2nc(Sc3cnc4c(c3)ncc(=O)n4CCCN3CCCC3=O)nc(N3CC[C@@H](N)C3)c2c1Cl [700,797]	>32	>32	–	–
CCc1[nH]c2nc(Oc3cncnc3)nc(Oc3cncc(C#N)c3)c2c1Cl [700,898]	<=0.5	2	–	–
CCc1[nH]c2nc(Sc3ccc4c(N5CCNCC5)ccnc4c3)nc(N3CC(O)C3)c2c1Br [700,403]	–	–	4 µg/mL (≈ 7.4 µM)	8 µg/mL (≈ 14.8 µM)
CCOc1nc(Sc2cc(C(=O)O)ccn2)nc2[nH]c(CC)c(Cl)c12 [700,321]	–	–	64 µg/mL (≈ 169 µM)	64 µg/mL (≈ 169 µM)
CCc1[nH]c2nc(Sc3cnc4sc(NC(C)=O)nc4c3)nc(N3CC(N)C3)c2c1Br [700,471]	–	–	2 µg/mL (≈ 3.85 µM)	8 µg/mL (≈ 15.4 µM)
CCc1[nH]c2nc(Sc3cnc4cccnc4c3)nc(N3CCC(c4cccnc4)C3)c2c1Cl (stereo not drawn) [700,871]	<=0.5	2	–	–
CCc1[nH]c2nc(Sc3ccc4nnc(C(=O)NCCCN5CCN(C)CC5)nc4c3)nc(N3CC[C@@H](N)C3)c2c1Cl [700,619]	–	–	32 µg/mL (≈ 52.4 µM)	32 µg/mL (≈ 52.4 µM)
C=CCc1nc(Oc2ccc(Cl)c(C#N)c2)nc2[nH]c(CC)c(Cl)c12 [700,832]	4	>8	–	–
CCc1[nH]c2nc(Sc3ccc[n+]([O-])c3)nc(N3CC(N)C3)c2c1Cl [700,562]	–	–	16 µg/mL (≈ 42.5 µM)	64 µg/mL (≈ 170 µM)
CCc1[nH]c2nc(Sc3cnc(N)nc3)nc(N3CC4CNC4C3)c2c1Cl (stereo not drawn) [700,790]	16	64	–	–
CCc1[nH]c2nc(Sc3cnc4nccnc4c3)nc(N3CC(CN)C3)c2c1Cl [700,463]	–	–	2 µg/mL (≈ 4.68 µM)	4 µg/mL (≈ 9.37 µM)
CCc1[nH]c2nc(Sc3cnc4nccnc4c3)nc(N3CCOCC3)c2c1Br [700,423]	–	–	1 µg/mL (≈ 2.12 µM)	2 µg/mL (≈ 4.23 µM)
CCOc1nc(Sc2nc(C(=O)O)co2)nc2[nH]c(CC)c(Br)c12 [700,292]	–	–	> 64 µg/mL	> 64 µg/mL
CCc1[nH]c2nc(Oc3cncnc3)nc(Oc3cncnc3)c2c1Br.O=C(O)C(F)(F)F [700,552]	–	–	≤ 0.5 µg/mL	2 µg/mL
CCc1[nH]c2nc(Sc3cnc4nccnc4c3)nc(N(C)C[C@@H](O)c3cccc(O)c3)c2c1Cl.O=C(O)C(F)(F)F [700,570]	–	–	1 µg/mL	8 µg/mL
CCc1[nH]c2nc(Sc3cnc4c(c3)OCCN4C)nc(N3CC(N)C3)c2c1Cl.O=C(O)C(F)(F)F [700,794]	16	32	–	–
CCc1[nH]c2nc(Sc3cnc4nccnc4c3)nc(N3CCC(CN)CC3)c2c1Cl [700,829]	16	32	–	–
CCc1[nH]c2nc(Oc3cncnc3)nc(Oc3cncc(C#N)c3)c2c1Cl.O=C(O)C(F)(F)F [700,722]	–	–	4 µg/mL	8 µg/mL
CCc1[nH]c2nc(Sc3cccnc3)nc(Cl)c2c1Cl.O=C(O)C(F)(F)F [700,268]	–	–	4 µg/mL	16 µg/mL
CCOc1nc(Nc2cc(OC)c(OC)c(OC)c2Br)nc2[nH]c(CC)c(Br)c12.O=C(O)C(F)(F)F [700,389]	–	–	> 64 µg/mL	> 64 µg/mL

Compound	MIC, SA (S. aureus ATCC 13709; S. aureus (SA), in µg/mL)	MIC Spn52 (S. pneumoniae ATCC 51916; [1])	MIC, SA (S. aureus ATCC 13709; S. aureus)	MIC Spn52 (S. pneumoniae ATCC 51916; S. pneumoniae)
CCOc1nc(Sc2nc(C(=O)OC)c(C(C)C)s2)nc2[nH]c(CC)c(Cl)c12 [700,302]	–	–	32 µg/mL (≈ 72.6 µM)	> 64 µg/mL
CCc1[nH]c2nc(Cc3cccnc3)nc(N3CCC(C(C)N4CCOCC4)CC3)c2c1Cl (stereo not drawn) [700,586]	–	–	> 64 µg/mL	> 64 µg/mL
CCc1[nH]c2nc(Nc3cnc4c(c3)nnn4C)nc(OC)c2c1Br.O=C(O)C(F)(F)F [700,599]	–	–	≤ 0.5 µg/mL	2 µg/mL
CCOc1nc(Nc2cnc3c(c2)nnn3C)nc2[nH]c(CC)c(Br)c12.O=C(O)C(F)(F)F [700,600]	–	–	> 8 µg/mL	> 8 µg/mL
CCc1[nH]c2nc(Sc3cnc4cccnc4c3)nc(N3CCC(N)(C(=O)N[C@H]4CCOC4=O)C3)c2c1Cl (stereo partly drawn) [700,888]	>64	>64	–	–
CCOC(=O)c1coc(Sc2nc(OCC)c3c(Br)c(CC)[nH]c3n2)n1 [700,290]	–	–	> 64 µg/mL	> 64 µg/mL
CCc1[nH]c2nc(Sc3cnc4nccnc4c3)nc(N3CCCC(CO)C3)c2c1Cl (stereo not drawn) [700,425]	–	–	≤ 0.5 µg/mL	2 µg/mL (≈ 4.39 µM)
CCc1[nH]c2nc(Sc3cccnc3)nc(NC[C@H](C)O)c2c1Cl.O=C(O)C(F)(F)F [700,273]	–	–	4 µg/mL	16 µg/mL
CCc1[nH]c2nc(Sc3ccc4cc(C(=O)O)c(C(=O)O)nc4c3)nc(N3CC[C@@H](N)C3)c2c1Cl [700,859]	32	>64	–	–
CCc1[nH]c2nc(Sc3cnc4nccnc4c3)nc(N3CC4CNCC43)c2c1Cl.O=C(O)C(F)(F)F (stereo not drawn) [700,566]	–	–	> 64 µg/mL	64 µg/mL
CCc1[nH]c2nc(Sc3cnc4cccnc4n3)nc(N3CC(O)C3)c2c1Br [700,346]	–	–	≤ 0.5 µg/mL	≤ 0.5 µg/mL
CCc1[nH]c2nc(Sc3cnc4c(N)nc(CN5CCOCC5)nc4c3)nc(N3CC[C@@H](N)C3)c2c1Cl [700,812]	4	4	–	–
CCc1[nH]c2nc(Sc3cncnc3)nc(N3CC4CCNC4C3)c2c1Cl (stereo not drawn) [700,802]	4	16	–	–
CCOc1nc(Oc2ccc3nc(C)ccc3c2)nc2[nH]c(CC)c(Cl)c12.O=C(O)C(F)(F)F [700,690]	–	–	> 64 µg/mL	8 µg/mL
CCOc1nc(Nc2cccc(C(=O)O)c2)nc2[nH]c(CC)c(Br)c12.O=C(O)C(F)(F)F [700,354]	–	–	2 µg/mL	> 64 µg/mL
CCc1[nH]c2nc(Sc3cnc4cccnc4c3)nc(N3CC4CC3CC4N)c2c1Cl (stereo not drawn) [700,857]	1	1	–	–
CCc1[nH]c2nc(Sc3cc(=O)n(CC(C)=O)c(=O)[nH]3)nc(N3CC(O)C3)c2c1Br [700,442]	–	–	≤ 0.5 µg/mL	2 µg/mL (≈ 4.04 µM)
CCc1[nH]c2nc(Sc3cnc4c(C#N)cnn4c3)nc(N3CC[C@@H](N)C3)c2c1Cl [700,718]	–	–	4 µg/mL (≈ 9.09 µM)	8 µg/mL (≈ 18.2 µM)
CCc1[nH]c2nc(Nc3cnc4c(cnn4C(C)C)c3)nc(N3CC(O)C3)c2c1Br [700,385]	–	–	8 µg/mL (≈ 17 µM)	> 64 µg/mL
CCc1[nH]c2nc(Oc3cncc(OC)c3)nc(Oc3cncc(OC)c3)c2c1Cl.O=C(O)C(F)(F)F [700,578]	–	–	≤ 0.5 µg/mL	1 µg/mL
CCc1[nH]c2nc(Sc3ccc4c(c3)C(=O)NC4)nc(N3CC[C@@H](N)C3)c2c1Cl [700,711]	–	–	1 µg/mL (≈ 2.33 µM)	8 µg/mL (≈ 18.7 µM)
